# Measurements reported in US20230104477A1, “USE OF DEHYDROASCORBIC ACID AGAINST NEMATODE INFECTION IN PLANTS” (Universiteit Gent, priority 2019, published 2023).
# Legend:
# [1] = system: root-knot nematode M. graminicola; test: Susceptibility assay on rice plants, foliar spray; assay type: in vivo, Meloidogyne graminicola; settings: foliar spray 24 h prior to inoculation (AA 20 mM, DHA 20 mM, AO 20 U/ml); 12 dai; vs control
# Protocol: (§1) M. graminicola originally isolated in the Philippines (Batangas) was cultured on susceptible rice plants. Second stage juveniles (J2s) were extracted using a sieve/tray extraction method and inoculation was done as described in Nahar et al., (2011). For susceptibility assays, at least two independent experiments were carried out, each time including eight plants per treatment. Twelve days after inoculation (dai), roots were stained using acid fuchsine (Nahar et al., 2011) to count galls and number of nematodes in the roots.
# (§2) Reduced Ascorbic acid (AA, 20 mM), dehydroascorbic acid (DHA, 20 mM), ascorbate oxidase (AO, 20 U/ml), methyl jasmonate (MeJA, 100 μM), aminooxyacetic acid (AoA, 12.5 mM), diethyldithiocarbamic acid (DIECA, 100 μM) and ethephon (100 μM) were purchased from Sigma and dissolved in water (except MeJA that was first dissolved in a drop of ETOH) to attain the indicated concentration.
# For foliar application, all chemicals were dissolved in water and 0.02% (v/v) of Tween20 as a surfactant was added prior to spraying on aerial portions of the rice plants. Control plants were sprayed with distilled water containing 0.02% Tween20. Eight plants per treatment were sprayed until run-off with 6.5 mL of solution (at 24 h prior to nematode inoculation, in cases where infected plants were used). The substrate was covered to avoid direct contact with the roots and/or nematodes.
# [2] = system: root-knot nematode Meloidogyne graminicola; test: Susceptibility assay on rice plants, soil drench; assay type: in vivo; settings: soil drench 24 h prior to inoculation (AA 20 mM, DHA 20 mM, AO 20 U/mL); twelve days after inoculation; vs control
# Protocol: as §1, §2
# For soil application, 6.5 mL of each solution was drenched on the substrate, 24 h prior to nematode inoculation.
# H2O2 = H2O2 measurements in roots (xylenol orange method); assay type: in vivo, rice; settings: 20 mM DHA-pretreated plants upon M. graminicola infection, 1 dpi
# Protocol: H2O2 measurements—14 days old rice plants were foliar sprayed with 20 mM DHA and 1 day later, plants were inoculated with Meloidogyne graminicola nematodes (Mg+) or mock inoculated (Mg−). One day after inoculation, samples were collected. Root samples were flash-frozen and ground under liquid nitrogen. Per sample, 100 mg of material was used to execute the xylenol orange method for H2O2 quantification described by Cheeseman (2006). After 5% trichloroacetic acid extraction, and 30 minutes reaction with the ferrous ammonium sulphate/xylenol orange (FOX) reagent, the absorbance was measured at 560 nm. The concentration was calculated by comparison with a standard curve of known H2O2 concentrations. The assay was done with 3 biological replicates, which each consisted of pooled material of 4 plants.
smiles,measurement,setting,value
"O=C1O[C@H]([C@@H](O)CO)C(=O)C1=O [DHA, (5R)-5-[(1S)-1,2-dihydroxyethyl]furan-2,3,4(5H)-trione]",number of galls,[1],significantly lower number of galls
same,number of nematodes,[1],lower number of nematodes
same,number of galls,[2],significantly lower number of galls
same,number of nematodes,[2],lower number of nematodes
same,H2O2 levels in roots,H2O2,induced
